Key:
[1] = test system: KB tumor-bearing athymic nude mice; assay: Biodistribution of 177Lu-RedFols in KB tumor-bearing mice; assay type: in vivo, mouse
Protocol: Athymic nude mice (Crl:CD1-Foxn^nu) were kept on a folate-deficient rodent diet (ssniff Spezialdiäten GmbH, Soest, Germany) for at least one week prior to inoculation with the tumor cells. Biodistribution studies were performed approx. two weeks after subcutaneous inoculation with KB tumor cells (5 × 10^6 in 100 μL PBS) (Supplementary Materials Section S12). […] Data were presented as the average ± SD of n = 3−4 mice.
Purpose: Biodistribution studies were performed in KB tumor-bearing athymic nude mice (Crl:CD1-Foxnnu) in order to investigate the tissue distribution profiles of the novel radioconjugates. The aim was to compare the impact of the two different albumin binders (4-(p-iodophenyl)butanoate unit vs. 5-(p-iodophenyl)pentanoate unit), and that of the in-corporation of an AMBA linker adjacent to the albumin binder on the distribution profile of the resulting folate radioconjugates.
Methods: The methods are described in the main article. The mice were sacrificed at […]

folate receptor (FR) = target: T1, folate receptor (FR) (Homo sapiens, UniProt P15328); assay: FR-binding affinity (KD) of 177Lu-RedFols on IGROV-1 cells; conditions: 1 h at 4 °C, read-out: KD Value (95% CI)
T1 construct: endogenous in cells; host or cells: IGROV-1 (human ovarian carcinoma cell line), intact cells on ice
Protocol: (100 µM) to block FRs on the cell surface. The IGROV-1 tumor cells were incubated for 1 h at 4 °C on a shaker, followed by removal of the supernatants and rinsing of the cells twice with PBS. After lysis of the cells with NaOH solution (1 M, 500 µL), the samples were counted for activity using a γ-counter (Wallac Wizard 1480, Perkin Elmer, Waltham, MA, USA). The cpm of the specific binding (determined by subtracting the cpm of the non-specific binding from the cpm of total binding), were plotted against the molar con-centration of the added folate radioconjugates. Non-linear regression analysis was per-formed using GraphPad Prism software (version 8) to obtain KD values from one curve of 3−5 independent experiments, each performed in triplicates.
Results: The results are reported in the main article. […]

[2] = Blood clearance of 177Lu-DOTA-ALBs in FVB mice; conditions: for Time to Reach 50% IA (T50%IA): blood activity, value at 3 min set as 100%
Protocol: Immunocompetent female mice (FVB) at the age of 5 to 6 weeks were purchased from Charles River Laboratories (Sulzfeld, Germany) and acclimatized upon arrival for at least 7 days. FVB mice were intravenously injected with ^177Lu-DOTA-ALBs (25 MBq, 1 nmol/mouse, 100 µL PBS containing 0.05% bovine serum albumin (BSA) and 25 μg L-ascorbic acid, n = 3−6 mice per radioligand) followed by the first blood sampling of 3 × 1 μL from a different tail vein 3 min after injection (set as t0). Additional blood samples were taken at defined time points after injection. All collected blood samples from individual mice were measured at the same time using a γ-counter (PerkinElmer Wallac Wizard 1480, Waltham, MA, USA) to obtain decay-corrected values. The counts were set in relation to the initial counts at t0 (set as 100%) to prepare clearance curves by plotting the percentage of retained activity in the blood (% IA) against the time. The blood clearance curves were investigated until the counts of the blood samples were below the linear detection range (Supplementary Materials Section S6). An analysis was performed using GraphPad Prism software (version 8.0) by fitting a non-linear regression curve (exponential, two-phase) to the data points to calculate the serum half-lives. The areas under the curves (AUC0–7days) were calculated by integrating the blood excretion curves over 7 days and setting into relation with the AUC0–7days value obtained for [^177Lu]Lu-DOTA-ALB-1 (set as 1.0) to obtain relative AUC0–7days values. […]
S6. Blood Clearance of 177Lu-DOTA-ALBs
Purpose: The 177Lu-labeled DOTA-ALBs were investigated in vivo in order to assess their blood clearance profile.
Methods: Female, immunocompetent FVB mice were obtained from Charles River Laboratories (Sulzfeld, Germany), at the age of 5–6 weeks and acclimatized for at least 7 days before the start of the in vivo studies. Blood clearance of 177Lu-labeled DOTA-ALBs were determined in n=3–6 mice per radioligand. The radiolabeled DOTA-ALBs ( 25 MBq/nmol) were formulated in PBS pH 7.4 containing 0.05% bovine serum albumin (BSA) and L-ascorbic acid (25 µg per 25 MBq) to prevent radiolytic degradation. Mice were intravenously injected with the respective 177Lu-labeled DOTA-ALB (25 MBq, 1 nmol, 100 µL per mouse). The blood clearance was determined by taking blood samples (3 × 1 µL) from the tail vein using 1 µL-capillaries at 3 min after injection (set as t0) as well as at various timepoints over the following 48 h. In the case of [177Lu]Lu-DOTA-ALB-1 and [177Lu]Lu-DOTA-ALB-3, blood sampling was additionally performed at later time points up to 3 and 7 days, respectively. The collected blood samples were measured in a γ-coun-ter (PerkinElmer, Wallac Wizard 1480, Waltham, MA, USA).

[3] = FVB mice, i.v., 25 MBq, 1 nmol, two-phase exponential fit of blood activity

T1 sequence (P15328 25-257): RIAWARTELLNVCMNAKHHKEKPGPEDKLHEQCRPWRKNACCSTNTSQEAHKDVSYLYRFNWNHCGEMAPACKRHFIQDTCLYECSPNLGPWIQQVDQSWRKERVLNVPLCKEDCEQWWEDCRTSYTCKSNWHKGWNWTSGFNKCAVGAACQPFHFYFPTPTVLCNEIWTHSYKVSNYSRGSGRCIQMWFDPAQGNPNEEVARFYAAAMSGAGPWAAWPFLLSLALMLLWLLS

CN1c2c(nc(N)[nH]c2=O)NC[C@H]1CNc1ccc(C(=O)N[C@@H](CCC(=O)N[C@@H](CCCCNC(=O)CN2CCN(CC(=O)O)CCN(CC(=O)O)CCN(CC(=O)O)CC2)C(=O)N[C@@H](CCCCNC(=O)c2ccc(CNC(=O)CCCc3ccc(I)cc3)cc2)C(=O)O)C(=O)O)cc1 [[^177Lu]Lu-6R-RedFol-3, metal not drawn]
Tumor-to-kidney ratio, comparison among all folate radioconjugates [1]: highest tumor-to-kidney ratio
Blood, accumulated activity ([1]; 1 h p.i.): 26 ± 3 % IA/g
Bone, accumulated activity ([1]; 1 h p.i.): 1.8 ± 0.5 % IA/g
Intestines, accumulated activity ([1]; 1 h p.i.): 2.6 ± 0.8 % IA/g
KB tumor, accumulated activity ([1]; 1 h p.i.): 8.5 ± 1.9 % IA/g
Kidneys, accumulated activity ([1]; 1 h p.i.): 8.0 ± 1.3 % IA/g
Liver, accumulated activity ([1]; 1 h p.i.): 3.7 ± 0.4 % IA/g
Lung, accumulated activity ([1]; 1 h p.i.): 11 ± 1 % IA/g
Muscle, accumulated activity ([1]; 1 h p.i.): 1.0 ± 0.1 % IA/g
Salivary glands, accumulated activity ([1]; 1 h p.i.): 5.2 ± 1.5 % IA/g
Spleen, accumulated activity ([1]; 1 h p.i.): 2.9 ± 0.4 % IA/g
Stomach, accumulated activity ([1]; 1 h p.i.): 1.9 ± 0.5 % IA/g
Tumor-to-blood ratio ([1]; 1 h p.i.): 0.33 ± 0.03
Tumor-to-kidney ratio ([1]; 1 h p.i.): 1.1 ± 0.1
Tumor-to-liver ratio ([1]; 1 h p.i.): 2.3 ± 0.4
Blood, accumulated activity ([1]; 4 h p.i.): 17 ± 1 % IA/g
Bone, accumulated activity ([1]; 4 h p.i.): 1.8 ± 0.1 % IA/g
Intestines, accumulated activity ([1]; 4 h p.i.): 2.0 ± 0.2 % IA/g
KB tumor, accumulated activity ([1]; 4 h p.i.): 18 ± 2 % IA/g
Kidneys, accumulated activity ([1]; 4 h p.i.): 7.6 ± 0.4 % IA/g
Liver, accumulated activity ([1]; 4 h p.i.): 3.0 ± 0.1 % IA/g
Lung, accumulated activity ([1]; 4 h p.i.): 8.2 ± 0.6 % IA/g
Muscle, accumulated activity ([1]; 4 h p.i.): 1.3 ± 0.1 % IA/g
Salivary glands, accumulated activity ([1]; 4 h p.i.): 4.2 ± 0.1 % IA/g
Spleen, accumulated activity ([1]; 4 h p.i.): 2.2 ± 0.2 % IA/g
Stomach, accumulated activity ([1]; 4 h p.i.): 1.5 ± 0.1 % IA/g
Tumor-to-blood ratio ([1]; 4 h p.i.): 1.1 ± 0.1
Tumor-to-kidney ratio ([1]; 4 h p.i.): 2.4 ± 0.2
Tumor-to-liver ratio ([1]; 4 h p.i.): 6.0 ± 0.8
Blood, accumulated activity ([1]; 24 h p.i.): 7.9 ± 0.7 % IA/g
Bone, accumulated activity ([1]; 24 h p.i.): 1.1 ± 0.1 % IA/g
Intestines, accumulated activity ([1]; 24 h p.i.): 0.96 ± 0.15 % IA/g
KB tumor, accumulated activity ([1]; 24 h p.i.): 39 ± 4 % IA/g
Kidneys, accumulated activity ([1]; 24 h p.i.): 12 ± 2 % IA/g
Liver, accumulated activity ([1]; 24 h p.i.): 1.9 ± 0.3 % IA/g
Lung, accumulated activity ([1]; 24 h p.i.): 4.1 ± 0.1 % IA/g
Muscle, accumulated activity ([1]; 24 h p.i.): 1.0 ± 0.1 % IA/g
Salivary glands, accumulated activity ([1]; 24 h p.i.): 4.0 ± 1.1 % IA/g
Spleen, accumulated activity ([1]; 24 h p.i.): 2.2 ± 0.1 % IA/g
Stomach, accumulated activity ([1]; 24 h p.i.): 1.1 ± 0.1 % IA/g
Tumor-to-blood ratio ([1]; 24 h p.i.): 5.0 ± 0.4
Tumor-to-kidney ratio ([1]; 24 h p.i.): 3.3 ± 0.4
Tumor-to-liver ratio ([1]; 24 h p.i.): 21 ± 1
Kd (folate receptor (FR)): 4.7 nM

O=C(O)CN1CCN(CC(=O)O)CCN(CC(=O)NCCC(=O)N[C@@H](CCCCNC(=O)c2ccc(CNC(=O)CCCc3ccc(I)cc3)cc2)C(=O)O)CCN(CC(=O)O)CC1.[177Lu] [[^177Lu]Lu-DOTA-ALB-3]
Retention of activity in the blood ([2]; FVB mice, 0 h p.i. (t0 set as 100%)): 100 % IA
Retention of activity in the blood ([2]; FVB mice, 1 h p.i.): 81 ± 9 % IA
Retention of activity in the blood ([2]; FVB mice, 2 h p.i.): 74 ± 16 % IA
Retention of activity in the blood ([2]; FVB mice, 4 h p.i.): 71 ± 11 % IA
Retention of activity in the blood ([2]; FVB mice, 8 h p.i.): 66 ± 10 % IA
Retention of activity in the blood ([2]; FVB mice, 24 h p.i.): 45 ± 7 % IA
Retention of activity in the blood ([2]; FVB mice, 48 h p.i.): 28 ± 5 % IA
Retention of activity in the blood ([2]; FVB mice, 72 h p.i.): 19 ± 2 % IA
Retention of activity in the blood ([2]; FVB mice, 120 h p.i.): 7 ± 2 % IA
Retention of activity in the blood ([2]; FVB mice, 144 h p.i.): 5 ± 1 % IA
Retention of activity in the blood ([2]; FVB mice, 168 h p.i.): 3 ± 1 % IA
Half-Life Phase a [2, 3]: 0.5 h
Half-Life Phase b [2, 3]: 34 h
Time to Reach 50% IA (T50%IA) ([2]; FVB mice, i.v.): ~ 24 h
Time to Reach 50% IA (T50%IA) ([2]; FVB mice, i.v., listed as 3): ~24 h
Blood AUC0–7days ([2]; FVB mice, i.v., decay-corrected, over 7 days): 3617 % IA× h
% Phase a ([2]; FVB mice, i.v., share of Phase a in blood excretion curve): 23%
% Phase b ([2]; FVB mice, i.v., share of Phase b in blood excretion curve): 77%

O=C(O)CN1CCN(CC(=O)O)CCN(CC(=O)NCCC(=O)N[C@@H](CCCCNC(=O)CCCc2ccc(I)cc2)C(=O)O)CCN(CC(=O)O)CC1.[177Lu] [[^177Lu]Lu-DOTA-ALB-1]
Rel. Blood AUC0–7days ([2]; mouse, in vivo): 1.0
% Phase a ([2]; mouse, in vivo, iv): 33%
% Phase b ([2]; mouse, in vivo, iv): 67%
Blood AUC0–7days ([2]; mouse, in vivo, iv): 1500 % IA× h
Half-Life Phase a ([2]; mouse, in vivo, iv): 0.006 h
Half-Life Phase b ([2]; mouse, in vivo, iv): 16 h

O=C(O)CN1CCN(CC(=O)O)CCN(CC(=O)NCCC(=O)N[C@@H](CCCCNC(=O)CCCCc2ccc(I)cc2)C(=O)O)CCN(CC(=O)O)CC1.[177Lu] [[^177Lu]Lu-DOTA-ALB-24]
Rel. Blood AUC0–7days ([2]; mouse, in vivo): 0.08
% Phase a ([2]; mouse, in vivo, iv): 99%
% Phase b ([2]; mouse, in vivo, iv): 1%
Blood AUC0–7days ([2]; mouse, in vivo, iv): 119 % IA× h
Half-Life Phase a ([2]; mouse, in vivo, iv): 0.8 h
Half-Life Phase b ([2]; mouse, in vivo, iv): 8.9 h

O=C(O)CN1CCN(CC(=O)O)CCN(CC(=O)NCCC(=O)N[C@@H](CCCCNC(=O)c2ccc(CNC(=O)CCCCc3ccc(I)cc3)cc2)C(=O)O)CCN(CC(=O)O)CC1.[177Lu] [[^177Lu]Lu-DOTA-ALB-25]
Rel. Blood AUC0–7days ([2]; mouse, in vivo): 0.3
% Phase a ([2]; mouse, in vivo, iv): 41%
% Phase b ([2]; mouse, in vivo, iv): 59%
Blood AUC0–7days ([2]; mouse, in vivo, iv): 425 % IA× h
Half-Life Phase a ([2]; mouse, in vivo, iv): 0.7 h
Half-Life Phase b ([2]; mouse, in vivo, iv): 4.5 h

Source: paper PMC10486429, “Investigations Using Albumin Binders to Modify the Tissue Distribution Profile of Radiopharmaceuticals Exemplified with Folate Radioconjugates” (Cancers, 2023)
